Results from patent US10266544B2, “Aryl substituted aminomethyl spectinomycin analogs as antibacterial agents” (ST. JUDE CHILDREN'S RESEARCH HOSPITAL, INC., priority 2013, dated 2019).
Where a name gives a salt, the structure may show the parent alone. Read-outs that look alike come from different tables or passages of the source.

Assays:
Type in all cases: cell-based
[1] = test system: Staphylococcus aureus (ATCC 29213); test: MIC determination, microbroth dilution; conditions: ATCC29213; Staphylococcus aureus (ATCC 29213); read-out: MIC S.a.
Bacillus anthracis = test: microbe, parasite or virus in culture; conditions: read-out: MIC B.a.
E. coli K12 ΔtolC = test: microbe, parasite or virus in culture; conditions: Escherichia coli, read-out: MIC E.c. Δtolc
[2] = test system: Klebsiella pneumoniae (ATCC 33495); test: MIC determination, microbroth dilution; conditions: ATCC33495
[3] = test system: Proteus vulgaris (ATCC 33420); test: MIC determination, microbroth dilution; conditions: ATCC33420
[4] = test system: Stenotrophomonas maltophilia (ATCC 13637); test: MIC determination, microbroth dilution
[5] = test system: Bacillus anthracis, Sterne 34F2; test: microbe, parasite or virus in culture; conditions: STERNE34F2, read-out: MIC B.a.
[6] = test system: Pseudomonas aeruginosa (PA01); test: MIC determination, microbroth dilution
[7] = test system: Legionella pneumophila (ATCC 33153); test: microbe, parasite or virus in culture; conditions: ATCC33153, 72 h, read-out: Zone of inhibition L.p.
[8] = test system: Neisseria gonorrhoeae (ATCC 49226); test: Disc diffusion assay; conditions: ATCC49226, 4 μg per disc, read-out: Zone of inhibition N.g.
[9] = test system: Enterococcus faecalis (ATCC 33186); test: MIC determination, microbroth dilution
Listeria monocytogenes = test: MIC determination (Table 6)
[10] = test system: Proteus mirabilis (ATCC 25933); test: MIC determination, microbroth dilution; conditions: ATCC25933
Moraxella catarrhalis = test: MIC determination (Table 6)
[11] = test system: MRSA, Staphylococcus aureus (NRS70); test: MIC determination, microbroth dilution; conditions: Staphylococcus aureus (NRS70); read-out: MIC MRSA
[12] = test system: Neisseria gonorrhoeae (ATCC 49226); test: Agar MIC determination (Alamar Blue)
[13] = test system: acinetobacter baumannii (ATCC 19606); test: MIC determination, microbroth dilution; conditions: ATCC19606
[14] = test system: M. tuberculosis clinical isolates; test: microbe, parasite or virus in culture; conditions: Mycobacterium tuberculosis, H37RV, read-out: MIC H37Rv
[15] = test system: Streptococcus pneumoniae (R6); test: MIC determination, microbroth dilution; conditions: Streptococcus pneumoniae (R6); read-out: MIC S. pn.
[16] = test system: Burkholderia cepacia (ATCC 25416); test: MIC determination, microbroth dilution; conditions: Burkholderia cepacia
[17] = test system: Neisseria meningitides (ATCC 13077); test: Disc diffusion assay; conditions: ATCC13077, 4 μg per disc, read-out: Zone of inhibition N.m.
[18] = test system: Bacillus subtilis (ATCC 23857); test: MIC determination, microbroth dilution; conditions: ATCC23857; Bacillus subtilis (ATCC 23857); read-out: MIC B.s.
[19] = test system: Haemophilus influenza (ATCC 49247); test: microbe, parasite or virus in culture; conditions: ATCC49247; Haemophilus influenza; 4 μg per disc; range of at least two experiments; read-out: Zone of inhibition H.i.
[20] = test system: Streptococcus pyogenes (ATCC 700294); test: MIC determination, microbroth dilution
[21] = test system: Escherichia coli (ATCC 700926); test: MIC determination, microbroth dilution; conditions: ATCC700926; Escherichia coli (ATCC 700926); read-out: MIC E.c.
Yersinia pestis = test: microbe, parasite or virus in culture; conditions: read-out: MIC Y.p.
[22] = ATCC13637, Stenotrophomonas maltophilia (ATCC 13637), read-out: MIC S.m.
[23] = ATCC33186, Enterococcus faecalis (ATCC 33186), read-out: MIC E.f.
[24] = ATCC49226, agar MIC, read-out: MIC N.g.
[25] = ATCC25416, read-out: MIC B.c., Burkholderia cepacia (ATCC 25416)
[26] = ATCC25416, read-out: MIC B.c., Burkholderia cepacia, Table 6
[27] = ATCC700294, Streptococcus pyogenes (ATCC 700294), read-out: MIC S. py.

| SMILES | MIC [1] [µg/mL] | MIC (Bacillus anthracis) [µg/mL] | MIC (E. coli K12 ΔtolC) [µg/mL] | MIC [2] [µg/mL] | MIC [3] [µg/mL] | MIC [5] [µg/mL] | MIC [6] [µg/mL] | zone of inhibition at 4 µg/disc [7] [mm] | zone of inhibition at 4 µg/disc [8] [mm] | MIC (Listeria monocytogenes) [µg/mL] | MIC [10] [µg/mL] | MIC (Moraxella catarrhalis) [µg/mL] | MIC [11] [µg/mL] | MIC [13] [µg/mL] | MIC [14] [µg/mL] | MIC [15] [µg/mL] | MIC [16, 25] [µg/mL] | MIC [16, 26] [µg/mL] | zone of inhibition at 4 µg/disc [17] [mm] | MIC [18] [µg/mL] | further results |
| --- | --- | --- | --- | --- | --- | --- | --- | --- | --- | --- | --- | --- | --- | --- | --- | --- | --- | --- | --- | --- | --- |
| CN[C@@H]1[C@H](O)[C@H](NC)[C@H]2O[C@]3(O)[C@H](O[C@@H]2[C@H]1O)O[C@H](C)C[C@@]3(O)CNCc1ccncc1 [compound 9, 3′-(R)-3′-(4-pyridinylmethylaminomethyl)dihydrospectinomycin Tetrahydrobromide] | ≥ 200 | 100 to 200 | 12.5 | > 200 | > 200 | 100 to 200 | ≥ 200 | 28 | 6 | 100 | > 200 | 12.5 | ≥ 200 | ≥ 200 | 200 | 25 to 50 | > 200 | > 200 | 6 | 200 | MIC [4, 22]: 200 µg/mL; MIC [9, 23]: > 200 µg/mL; MIC [12, 24]: ≥ 200 µg/mL; zone of inhibition at 4 µg/disc [19]: 8 mm; MIC [20, 27]: 25 to 50 µg/mL; MIC [21]: 50 µg/mL |
| CN[C@@H]1[C@H](O)[C@H](NC)[C@H]2O[C@]3(O)[C@H](O[C@@H]2[C@H]1O)O[C@H](C)C[C@@]3(O)CNCc1ccccc1F [compound 14, 3′-(R)-3′-[(2-fluoro)benzylaminomethyl)]dihydrospectinomycin Trihydrochloride] | 200 | 50 to 100 | 25 | ≥ 200 | 100 | 50 to 100 | ≥ 200 | 36 | 18 | 25 | > 200 | 1.6 | ≥ 200 | > 200 | 50 | 3.1 to 6.3 | 100 to 200 | 100 to 200 | 19 | 6.3 | MIC [4, 22]: 12.5 to 25 µg/mL; MIC [9, 23]: 50 µg/mL; MIC [12, 24]: 12.5 to 25 µg/mL; MIC (Yersinia pestis): > 200 µg/mL; zone of inhibition at 4 µg/disc [19]: 11 to 12 mm; MIC [20, 27]: 3.1 µg/mL; MIC [21]: 50 µg/mL |
| CN[C@@H]1[C@H](O)[C@H](NC)[C@H]2O[C@]3(O)[C@H](O[C@@H]2[C@H]1O)O[C@H](C)C[C@@]3(O)CNCc1cccs1 [compound 17, 3′-(R)-3′-(2-thiophenylmethylaminomethyl)dihydrospectinomycin Trihydrochloride] | 50 | 50 | 6.3 to 12.5 | 200 | 200 | 50 | ≥ 200 | 41 | 11 | 12.5 | > 200 | 3.1 | 100 to 200 | > 200 | 25 | 12.5 | > 200 | > 200 | 15 | 25 | MIC [4, 22]: 6.3 µg/mL; MIC [9, 23]: 50 µg/mL; MIC [12, 24]: 50 µg/mL; zone of inhibition at 4 µg/disc [19]: 13 mm; MIC ([20]; Streptococcus pyogenes, ATCC700294, read-out: MIC S. py.): 6.3 to 12.5 µg/mL; MIC [21]: 50 µg/mL |
| CN[C@@H]1[C@H](O)[C@H](NC)[C@H]2O[C@]3(O)[C@H](O[C@@H]2[C@H]1O)O[C@H](C)C[C@@]3(O)CNCc1nccs1 [compound 19, 3′-(R)-3′-(2-thiazolylmethyl)aminomethyldihydrospectinomycin Tetrahydrobromide] | 100 | 100 | 12.5 to 25 | > 200 | > 200 | 100 | > 200 | 39 | 9 | 25 | > 200 | 12.5 | > 200 | > 200 | 100 | 12.5 | > 200 | > 200 | 13 | 100 | MIC [4, 22]: 25 to 50 µg/mL; MIC [9, 23]: 50 µg/mL; MIC [12, 24]: 100 µg/mL; zone of inhibition at 4 µg/disc [19]: 10 mm; MIC [20, 27]: 12.5 µg/mL; MIC [21]: 200 µg/mL |
| CN[C@@H]1[C@H](O)[C@H](NC)[C@H]2O[C@]3(O)[C@H](O[C@@H]2[C@H]1O)O[C@H](C)C[C@@]3(O)CNCc1ccc(Cl)s1 [compound 21, 3′-(A′)-3′-[(5-Chloro)-2-thiophenylmethylaminomethyl)dihydrospectinomycin Trihydrobromide] | 25 to 50 | 50 | 12.5 | > 200 | ≥ 200 | 50 | > 200 | 22 | 20 | 6.3 | > 200 | 0.8 | 200 | > 200 | 100 | 3.1 | 200 | 200 | 19 | 25 to 50 | MIC ([4]; Stenotrophomonas maltophilia, ATCC13637, read-out: MIC S.m.): 12.5 µg/mL; MIC ([9]; Enterococcus faecalis, ATCC33186, read-out: MIC E.f.): 12.5 µg/mL; MIC ([12]; ATCC49226, read-out: MIC N.g.): 12.5 to 25 µg/mL; zone of inhibition at 4 µg/disc [19]: 13 mm; MIC [20, 27]: 1.6 µg/mL; MIC [21]: 50 µg/mL |
